Our source for the IC50 and Ki values is BindingDB's records for patent US9108978 (Monash University, 2015).

Each structure is given as a SMILES string.

This experiment deals with T1, Bifunctional ligase/repressor BirA (Staphylococcus aureus, UniProt A0A3A5LBF0).
T1 sequence (A0A3A5LBF0 whole entry): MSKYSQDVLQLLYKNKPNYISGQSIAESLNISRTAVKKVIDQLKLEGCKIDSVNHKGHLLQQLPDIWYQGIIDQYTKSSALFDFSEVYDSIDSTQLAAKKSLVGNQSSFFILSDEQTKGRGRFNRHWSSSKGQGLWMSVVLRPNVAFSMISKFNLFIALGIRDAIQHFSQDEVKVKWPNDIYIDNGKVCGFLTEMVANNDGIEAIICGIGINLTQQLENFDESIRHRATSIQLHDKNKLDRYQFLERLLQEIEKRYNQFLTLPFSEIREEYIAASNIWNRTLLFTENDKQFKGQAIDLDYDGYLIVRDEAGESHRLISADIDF
In words: Enzyme Inhibition Assay. The following applies: pH 8; 37 °C. The method, then: The reaction was initiated by the addition of BPL to a final concentration of 4 nM. After 20 minutes at 37 C., 4 uL aliquots of the reaction were spotted onto Whatman paper pre-treated with biotin and trichloroacetic acid. The filters were washed twice with 10% v/v ice-cold trichloroacetic acid and once with ethanol before air-drying. Quantitation of protein-bound radiolabelled biotin was performed by liquid scintillation. One unit of enzyme activity was defined by the amount of BPL required to incorporate 1 nmol of biotin per minute. The IC50 value of each compound was determined.

A word on the IC50: it is the midpoint of a concentration-inhibition curve. Low values mean higher potency, high ones lower potency. A word on the Ki: it is the equilibrium dissociation constant of an inhibitor or competing ligand from its target. Higher therefore signals a looser hold on the target. As for `Nc1ncnc2c1ncn2[C@@H]1O[C@H](COP(=O)(O)OCCCCC[C@@H]2SC[C@@H]3NC(=O)N[C@@H]32)[C@@H](O)[C@H]1O` [US9108978, 2.02], the IC50 amounted to 0.203 µM and the inhibitory constant (Ki) turned out to be 0.03 µM.
